Data set [1] concerns the target norepinephrine transporter (Homo sapiens, UniProt P23975). To be noted: cited from earlier work.
A further data set relates to monoamine oxidase. To be noted: cited from earlier work.
The subject of the next data set is mice. To be noted: cited from earlier work.
A further data set relates to NMDA receptors. The note with it: cited from earlier work.
For the next data set, the system named is rats. The note with it: cited from earlier work.
The next data set concerns the target T1, cytochrome P450 1A2 (Homo sapiens, UniProt P05177).
T1 sequence (P05177 1-516): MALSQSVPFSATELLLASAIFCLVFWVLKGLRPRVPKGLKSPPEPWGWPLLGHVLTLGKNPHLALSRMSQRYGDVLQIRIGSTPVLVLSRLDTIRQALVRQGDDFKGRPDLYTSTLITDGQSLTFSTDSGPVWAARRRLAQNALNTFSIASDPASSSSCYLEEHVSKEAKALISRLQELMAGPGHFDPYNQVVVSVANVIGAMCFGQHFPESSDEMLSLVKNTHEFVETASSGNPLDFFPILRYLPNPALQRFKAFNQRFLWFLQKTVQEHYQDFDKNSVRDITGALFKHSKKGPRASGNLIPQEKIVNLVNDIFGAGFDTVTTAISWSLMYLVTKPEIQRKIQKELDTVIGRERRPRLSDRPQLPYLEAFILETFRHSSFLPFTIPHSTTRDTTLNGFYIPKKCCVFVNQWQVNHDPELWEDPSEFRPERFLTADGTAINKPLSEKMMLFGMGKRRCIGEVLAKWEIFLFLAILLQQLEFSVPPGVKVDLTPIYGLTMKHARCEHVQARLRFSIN
To be noted: cited from earlier work.

For data set [2] the following is noted: in vivo; cited from earlier work.
Data set [3] deals with Sprague-Dawley rats. The experiment in a line: Cue-induced reinstatement of the cocaine self-administration response after extinction, Phase II. It counts as in vivo. To be noted: 10 mg/kg PO, 1 hour prior to test; after 9-day extinction; N=14-15 per group. From the text: (§1) Evaluation of the Effects of Mavoglurant on Cocaine Dependence and Cocaine Reinstatement Using the Intravenous Self-Administration Model in Sprague-Dawley Rats
(§2) Adult male Sprague-Dawley rats (300-325 g at arrival) from Harlan Laboratory (Indiana, USA) were used. Upon arrival, the rats were assigned a unique identification numbers (tail marks). Animals were single housed in suspended polycarbonate rat cages with filter tops, and were acclimated for up to 7 days. All rats were examined, handled, and weighed prior to initiation of the study to assure adequate health and suitability. During the course of the study, 12 h/12 h light/dark cycles were maintained. The room temperature was 21-23° C. with a relative humidity maintained at 30-70%. Water was provided ad libitum for the duration of the study.
(§3) Mavoglurant (free form) was formulated in 0.5% methylcellulose (MC) at 1, 3 and 10 mg/kg and administered orally at a dose volume of 1 ml/kg 60 minutes prior to test.
Intravenous drug self-administration took place in sound attenuated operant chambers equipped with an exhaust fan (Med Associates, VT). Each chamber contained two levers situated on one wall of the chamber. […]
During the reinstatement session, which occurred one day after the last extinction session, rats were presented the cues (flash+tone) at the beginning of the session and their lever-press responses recorded. […]

For data set [4], the system named is Sprague-Dawley rats. Kind of data set: Acute effects on intravenous cocaine self-administration (FR5) in rats, Phase I. It is filed as in vivo. The note with it: cocaine 0.3 mg/kg/infusion.
Source text: as §1, §2
Cocaine Hydrochloride (Sigma-Aldrich, USA) (1.05 mg/ml which is equivalent to 0.3 mg/kg/infusion under 350 g body weight and 0.1 ml/infusion rate) was dissolved in saline (0.9% NaCl). The formulation was a clear solution.
as §3
Intravenous drug self-administration took place in sound attenuated operant chambers equipped with an exhaust fan (Med Associates, VT). Each chamber contained two levers situated on one wall of the chamber. Only one of the two levers was active (located on the left side). Pressing the active lever caused delivery of reinforcer (food or cocaine). […] A stimulus light was located above each lever, but only the one above the active lever was on during the timeout period (defined below). A house light (providing illumination) was located at the top of opposite wall. For food training (see details below), a pellet receptacle was situated between the two levers for delivery of food pellets (Bio-Serv's Dustless Precision Pellets #F0165, 45 mg). […]

“Also recorded” adds a separate entry of the source.

Chain of norepinephrine transporter (P23975 whole entry, species assumed): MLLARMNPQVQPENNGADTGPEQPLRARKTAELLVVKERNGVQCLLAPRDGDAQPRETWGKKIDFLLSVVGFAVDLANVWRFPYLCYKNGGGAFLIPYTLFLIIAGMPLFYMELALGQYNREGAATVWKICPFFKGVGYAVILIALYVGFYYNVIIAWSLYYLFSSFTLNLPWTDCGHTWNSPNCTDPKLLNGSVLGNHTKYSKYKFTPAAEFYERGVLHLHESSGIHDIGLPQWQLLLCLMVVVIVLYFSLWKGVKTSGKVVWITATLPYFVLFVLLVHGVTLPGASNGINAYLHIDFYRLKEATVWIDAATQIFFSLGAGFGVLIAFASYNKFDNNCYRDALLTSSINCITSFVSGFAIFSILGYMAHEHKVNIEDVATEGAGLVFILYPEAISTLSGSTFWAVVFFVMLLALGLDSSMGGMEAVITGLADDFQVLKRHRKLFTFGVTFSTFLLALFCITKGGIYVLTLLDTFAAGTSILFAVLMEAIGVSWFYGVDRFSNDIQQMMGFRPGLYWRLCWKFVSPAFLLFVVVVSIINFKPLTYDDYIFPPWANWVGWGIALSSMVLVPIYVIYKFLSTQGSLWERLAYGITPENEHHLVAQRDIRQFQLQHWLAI

As for `Cc1cccc(C#Cc2ccccc2)n1` [MPEP, 2-methyl-6-(2-phenylethynyl)pyridine], in [1], the “off-target effects on the norepinephrine transporter” value was “off-target effects”. Moreover, the “off-target effects on monoamine oxidase” value in the data set with monoamine oxidase is reported as “off-target effects”. The cocaine self-administration entry with mice and in the data set on rats was “decreased cocaine self-administration” throughout. Also, the “off-target effects on NMDA receptors” value in the data set on NMDA receptors is “off-target effects”.

Regarding `Cc1nc(C#Cc2cccnc2)cs1` [MTEP, 3-[2-(2-methylthiazol-4-yl)ethynyl]pyridine], the cocaine self-administration entry in the data set with mice and in the data set on rats was “decreased cocaine self-administration” in each case. For the same compound, on cytochrome P450 1A2, the “inhibition of cytochrome P450 1A2” value is on record as “potent inhibition”.

Turning to `CNCCCN1c2ccccc2CCc2ccccc21` [desipramine], in data set [2], the cocaine craving entry was “reduce”, the cocaine use entry was “reduce” and the “symptoms of cocaine withdrawal” value is listed as “alleviate symptoms of cocaine withdrawal”.

As to `COC(=O)N1CC[C@@H]2[C@H]1CCC[C@@]2(O)C#Cc1cccc(C)c1` [mavoglurant, (−)-(3aR,4S,7aR)-4-Hydroxy-4-m-tolylethynyl-octahydro-indole-1-carboxylic acid methyl ester], the “cue-induced reinstatement of the self-administration response” value in the data set with Sprague-Dawley rats [3] is given as “cue-induced reinstatement was suppressed; also recorded: completely prevented cue-induced reinstatement”. Also, the “responding on the active lever (cocaine self-administration)” value is “tended to reduce responding on the active lever” with Sprague-Dawley rats [4] (3 mg/kg orally, 60 minutes prior to test, post hoc p<0.10, N=12); “significantly reduced responding” with Sprague-Dawley rats [4] (10 mg/kg PO, 1 hour prior to test, post hoc p<0.001, N=12); “significantly reduced cocaine self-administration” in the data set on Sprague-Dawley rats [4] (10 mg/kg PO, 1 hour prior to test, post hoc p<0.001, N=12, listed as Mavoglurant).

Source of the values: patent US11878001B2, “Use of mavoglurant in the reduction of cocaine use or in preventing relapse into cocaine use” (NOVARTIS AG, priority 2017, dated 2024).
